These results are taken from patent US10543159B2, “Hair papilla cell activator” (Ezaki Glico Co., Ltd., priority 2014, dated 2020).

Where a name gives a salt, the structure may show the parent alone.

One assay concerns FGF7 and VEGF. Kind of assay: Gene expression with POs-Ca (R) combined with general hair-restoration components (Example 8). Type of assay: cell-based, human. As to conditions: 0.25% POs-Ca (R) with 0.25% glycyrrhizinate dipotassium, 1% tocopherol acetate, 0.125% pantothenyl ethyl ether or 1% Swertia japonica; two wells. As for the experimental part: (1) Glycyrrhizinate dipotassium (for biochemical use) from Wako Pure Chemical Industries, Ltd. was diluted to 20% (w/v) with water, and sterilized by being passed through a 0.20-μm filter (Minisart, surfactant-free cellulose acetate, Sartorius Stedim Biotech, US) with a 10-ml syringe (Terumo Corporation), and the resulting product was diluted with sterilized water, as required, and used.
(2) (±)-α-Tocopherol acetate (first grade) from Wako Pure Chemical Industries, Ltd., as tocopherol acetate, and DL-pantothenyl ethyl ether from Santa Cruz Biotechnology, as pantothenyl ethyl ether, were each diluted 5-fold to 20% (v/v) with ethanol, and diluted with sterilized water, as required, and used.
(3) A water-ethanol solution of Swertia japonica extract from Senken Co., Ltd., as a 100% (v/v) extract, was diluted with sterilized water, as required, and used.
(1) 500 μl of a special medium in which 2×10^4 cells/ml of follicle dermal papilla cells were suspended was dispensed into a type I collagen-coated 24-well cell culture plate (Corning), and cultured at a cell density of 5×10^3 cells/cm^2 at 37° C. for 96 hours, until the cells reached subconfluent. […]
(3) Two wells were used for culturing each of the DMEM solutions containing (a) to (i). The expression levels of FGF7 and VEGF were analyzed as in (3) to (8) of Example 3, and the average values of the two wells were compared.

Assay [1] deals with human follicle dermal papilla cells. Nature of the assay: Follicle dermal papilla cell proliferation, Cell Counting Kit-F cell count (Example 2). The class given is cell-based. The method, then:
A strain (Lot. 3092504.12) sold by PromoCell (Germany) was used as human follicle dermal papilla cells. The cells were cultured in a CO2 incubator at 37° C., using a special medium for follicle dermal papilla cells (PromoCell), unless otherwise indicated. Cell subculturing was performed as follows: cells were seeded at 5000 to 10000 cells/cm^2 in an uncoated dish, and when the cells reached subconfluent, they were treated with trypsin-EDTA (0.03%) and detached, and then re-seeded. […] The medium was replaced about once every 3 days.
1. The procedures (1) and (3) to (5) in Example 1 were performed in the same manner as described above. Solutions of the compositions shown in the following table were prepared in a concentration series starting from a 10% (w/v) aqueous solution of POs-Ca (R), a 12.9% (w/v) aqueous solution of G1P-Ca, a 1.84% (w/v) aqueous solution of CaCl2.2H2O, or a 10% (w/v) aqueous solution of POs-Na.
2. In place of the conditions ((6), (7) and (8)) in Example 1, Cell Counting Kit-F (Dojindo Molecular Technologies, Inc.) was added to each well in accordance with the manual, and the number of cells was counted.
On the technique in general: Tetrazolium dyes change colour on reduction, which living cells bring about.

Assay [2] concerns VEGF. Kind of assay: Expression rate of VEGF among acidic saccharide salts, quantitative PCR (Example 6). As to conditions: Example 6: solutions (b)-(h) of b288 mixed 1:9 with DMEM, GAPDH reference, mean of 4 PCR assays. Type of assay: cell-based, human. As for the experimental part: (§1) (1) 500 μl of a special medium in which 2×10^4 cells/ml of follicle dermal papilla cells were suspended was dispensed into a type I collagen-coated 24-well cell culture plate (Corning), and cultured at a cell density of 5×10^3 cells/cm^2 at 37° C. for 72 hours. […] Oji Cornstarch Co., Ltd.), (f) a 2.5% (w/v) aqueous solution of a phosphorylated oligosaccharide magnesium salt (POs-Mg; […] (3) Each of the solutions (a) to (c) was mixed with DMEM high glucose (Sigma, USA) at a ratio of 1:9. (4) Following the procedures (4) to (6) in Example 2, mRNA was extracted from the cells, cDNA was prepared, and then the expression levels of the VEGF, FGF-7, and GAPDH genes were quantified by quantitative PCR. (7) Using GAPDH as a reference gene, a comparative analysis of expression levels was performed with the analysis software (Bio-Rad CFX Manager 3.0) included in CFX96Touch. The expression levels were calculated under the default conditions of the software.

For assay [3], the system named is FGF-7. Kind of assay: Expression rate of FGF-7 among acidic saccharide salts, quantitative PCR (Example 6). The settings on record: Example 6: solutions (b)-(h) of b288 mixed 1:9 with DMEM, GAPDH reference, mean of 4 PCR assays. Type of assay: cell-based, human. The method, then:
as §1

For assay [4], the system named is FGF-7. Kind of assay: Quantitative PCR gene expression in follicle dermal papilla cells: FGF-7. The class given is cell-based, human. The settings on record: 37° C., 5 hours. The method, then:
(§2) (1) 500 μl of a special medium in which 4×10^4 cells/ml of follicle dermal papilla cells were suspended was dispensed into a type I collagen-coated 24-well cell culture plate (Corning), and cultured at a cell density of 1.0×10^4 cells/cm^2 at 37° C. for 42 hours. […] Each of the solutions (a) to (c) was mixed with DMEM high glucose (Sigma, USA) at a ratio of 1:9.
(§3) (3) The medium was aspirated from each well obtained in (1), the well was washed by adding 1 ml of 1×PBS (137 mM NaCl, 8.1 mM Na2HPO4, 2.68 mM KCl, 1.47 mM KH2PO4 (pH 7.4); Wako Pure Chemical Industries, Ltd.), and aspirating the PBS, 500 μl of DMEM high glucose was added, and the cells were incubated in a CO2 incubator at 37° C. for 5 hours. […]
(6) 0.5 μl of each of cDNA solutions diluted 2-fold with water, 1 μl of a solution containing 4 μM of each of primers 1 and 2 for each of the genes shown in Table 2, 5 μl of SYBR Premix Ex Taq II (Takara), and 3.5 μl of water were added, and quantitative PCR was performed on each of the genes. […] Fluorescence intensity after each cycle was measured.
(§4) (7) Using PGK1 and GAPDH as reference genes, a comparative analysis of expression levels was performed with the analysis software (Bio-Rad CFX Manager 3.0) included in CFX96Touch. Relative expression levels were calculated under the default conditions of the software. […]

The test system of the next assay is Wnt5a. Nature of the assay: Quantitative PCR gene expression in follicle dermal papilla cells: Wnt5a. The class given is cell-based, human. As to conditions: 37° C., 5 hours. As for the experimental part:
as §2, §3
(4) The medium was removed from each well, and then mRNA was extracted using CellAmp Direct RNA Prep Kit for RT-PCR (Takara). The method was performed in accordance with the manual for the kit.
(5) 8 μl of the extracted mRNA solution (200 μl for each well) was used, and cDNA was obtained by the reverse transcription reaction at a scale of 40 μl, using PrimeScript RT Master Mix (Takara). The reaction conditions were as set forth in the manual for the kit.
(6) 0.5 μl of each of cDNA solutions diluted 2-fold with water, 1 μl of a solution containing 4 μM of each of primers 1 and 2 for each of the genes shown in Table 2, 5 μl of SYBR Premix Ex Taq II (Takara), and 3.5 μl of water were added, and quantitative PCR was performed on each of the genes. Using CFX96 Touch (BIO-RAD, USA), denaturation treatment at 95° C. for 30 seconds was performed, and then a two-step cycle at 95° C. for 5 seconds and at 62° C. for 20 seconds was performed for 65 cycles. Fluorescence intensity after each cycle was measured.
as §4

Assay [5] deals with VEGF. Nature of the assay: Quantitative PCR gene expression in follicle dermal papilla cells: VEGF. The class given is cell-based, human. The settings on record: Example 5: 0.25% POs-Ca (R), 50 μM adenosine or both; DMEM serum-free, 37° C., 5 hours; Dunnett p<0.05, n=8.
Setting [6] is: Example 5: 0.25% POs-Ca (R), 50 μM adenosine or both, DMEM serum-free, Dunnett p<0.05, n=8.
[7] abbreviates: Example 7: 0.25% POs-Mg or MgCl2.6H2O with equivalent magnesium, DMEM, Dunnett p<0.05.

Turning to `CC(=O)Oc1c(C)c(C)c2c(c1C)CCC(C)(CCC[C@H](C)CCC[C@H](C)CCCC(C)C)O2` (mixture of isomers) [tocopherol acetate, (±)-α-Tocopherol acetate], the “synergistic effect with POs-Ca (R) on expression of FGF7 and VEGF” value in the assay on FGF7 and VEGF was “None”.

As to `O=P(O)(O)OC1O[C@H](CO)[C@@H](O)[C@H](O)[C@H]1O` (some centres unmarked) [G1P-Ca, glucose-1-phosphate calcium salt], in assay [1] (FIG. 1B-1D legends, Dunnett p<0.05), the “working concentrations having the effect of proliferating follicle dermal papilla cells” value is reported as “over 0.3%”. Moreover, the “number of cells compared to that without addition” value in assay [1] (concentration series of Table 1A, 3 days) is “increased at all concentrations”. The “VEGF, relative values of the expression levels based on the control as 1” value with VEGF [2] (calcium salt) is “induced an increase”; in the assay with VEGF [2] (listed as G1P—Ca, calcium salt), 1.46. Further, the “FGF7, relative values of the expression levels based on the control as 1” value in the assay with FGF-7 [3] (calcium salt) is reported as “induced an increase”; in the assay on FGF-7 [3] (listed as G1P—Ca, calcium salt), 1.10.

Consider `O=C([O-])[C@H](O)[C@@H](O)[C@H](O[C@@H]1O[C@H](CO)[C@H](O)[C@H](O)[C@H]1O)[C@H](O)CO.O=C([O-])[C@H](O)[C@@H](O)[C@H](O[C@@H]1O[C@H](CO)[C@H](O)[C@H](O)[C@H]1O)[C@H](O)CO.[Ca+2]` [Lactobio-Ca, calcium lactobionate], for which the figures for the “VEGF, relative values of the expression levels based on the control as 1” value with VEGF [2] and with VEGF [2] (listed as calcium lactobionate) were 1.48 and “induced an increase”, respectively. Further, the “FGF7, relative values of the expression levels based on the control as 1” value in the assay on FGF-7 [3] is recorded as 1.35; in the assay with FGF-7 [3] (listed as calcium lactobionate), “induced an increase”.

As to `Nc1ncnc2c1ncn2[C@@H]1O[C@H](CO)[C@@H](O)[C@H]1O` [adenosine], the “expression of FGF7 compared to without treatment” value in the assay with FGF-7 [4] (setting [6]) is “significant difference”. Besides, the “expression of WNTSA (Wnt5a) compared to without treatment” value in the assay on Wnt5a (setting [6]) is on record as “significant difference”. In addition, the “expression of VEGF compared to without treatment” value in the assay with VEGF [5] is given as “significant difference”.

Take `CC1(C)[C@@H](O[C@H]2O[C@H](C(=O)O)[C@@H](O)[C@H](O)[C@H]2O[C@@H]2O[C@H](C(=O)O)[C@@H](O)[C@H](O)[C@H]2O)CC[C@]2(C)[C@H]3C(=O)C=C4[C@@H]5C[C@@](C)(C(=O)O)CC[C@]5(C)CC[C@@]4(C)[C@]3(C)CC[C@@H]12` [glycyrrhizinate dipotassium, Glycyrrhizinate dipotassium]: the “synergistic effect with POs-Ca (R) on expression of FGF7 and VEGF” value in the assay on FGF7 and VEGF is reported as “None”.

With “magnesium chloride hexahydrate [general magnesium]”, the “expression of FGF7” value in the assay with FGF-7 [4] (setting [7]) is “not observed”. Besides, in the assay with Wnt5a (setting [7]), the “expression of WNTSA” value was “not observed”.
